The results in this text go back to patent publication US6683096B2, “Indolylpiperidine derivatives as antihistaminic and antiallergic agents” (Almirall Prodesfarma, S.A., priority 1999, dated 2004).

The target of one data set is T1, histamine-H1 receptors (Cavia porcellus, UniProt P31389).
T1 construct: performed in guinea pig cerebellum membranes; from tissue; host or cells: guinea pig cerebellum membranes
In words: Histamine-H1 receptor binding assay ([3H]-mepyramine, guinea pig cerebellum membranes). The settings on record: guinea pig cerebellum membranes, 0.7 nM [3H]-mepyramine; read-out: BINDING TO RECEPTOR H1 ( IC50 nM ). The method, then: (1) Histamine-H1 receptor binding assay
Briefly, the membrane suspensions (160 μg/ml) were incubated at 30° C. with 0.7 nM [^3H]- mepyramine and different concentrations of the test compounds in a final volume of 250 μl. Binding reactions were terminated by filtration after 30 min of incubation and the bound radioactivity was determined. The specific binding was measured in the presence of 10 μM of promethazine. The affinity of each test compound to the receptor was determined by using at least six different concentrations run in duplicate. IC50 values were obtained by non-linear regression by use of SAS on a DEC AXP computer.

The subject of data set [1] is histamine-induced skin vascular permeability in rats. Put plainly: Histamine-induced skin vascular permeability in rats. The settings on record: Rattus norvegicus, po; 3 mg/Kg orally, 4 hours after administration, male Wistar rats; read-out: inhibition of the histamine-induced wheal. Format: in vivo. The method, then:
(2) Histamine-induced skin vascular permeability in rats
Male Wistar rats (180-210 g) were treated orally with the test compound or vehicle. One, 4, 8 and 24 hours later, the rats were lightly anaesthetized with ether. The cutaneous reaction was induced by two intradermal injections of 50 μl of histamine (100 μg/ml) onto the back, followed by a intravenous injection of 3 ml/kg of Evan's Blue (5 mg/ml), both dissolved in saline. Sixty min later, the rats were killed by cervical dislocation and the back skin dissected free. The diameter (in millimeters) of the wheal was measured in two directions and the area was calculated.

Some results are limits rather than exact numbers.

T1 sequence (P31389 whole entry): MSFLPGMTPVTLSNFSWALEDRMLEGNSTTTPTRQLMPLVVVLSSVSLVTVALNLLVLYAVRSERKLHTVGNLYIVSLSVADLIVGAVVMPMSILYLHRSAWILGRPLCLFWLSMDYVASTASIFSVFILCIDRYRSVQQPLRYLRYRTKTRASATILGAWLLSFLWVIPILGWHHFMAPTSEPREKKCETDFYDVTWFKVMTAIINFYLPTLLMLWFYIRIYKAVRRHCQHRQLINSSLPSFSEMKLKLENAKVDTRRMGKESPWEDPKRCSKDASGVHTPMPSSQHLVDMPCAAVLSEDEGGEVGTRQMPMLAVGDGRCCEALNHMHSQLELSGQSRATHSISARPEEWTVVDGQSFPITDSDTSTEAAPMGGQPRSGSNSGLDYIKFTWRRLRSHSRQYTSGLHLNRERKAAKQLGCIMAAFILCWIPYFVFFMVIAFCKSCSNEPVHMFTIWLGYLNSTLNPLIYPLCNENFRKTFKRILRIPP

By IC50 is commonly meant the concentration that gives 50% inhibition. What is called melting point is the temperature of the solid-liquid transition. Compound `CCCCCn1cc(C2CCN(CCOc3ccccc3C(=O)O)CC2)c2ccccc21` [Example 2, 2-{2-[4-(1-pentyl-1H-indol-3-yl)-piperidin-1-yl]-ethoxy}-benzoic acid] registered a melting point of 113 °C. The IC50 at histamine-H1 receptors is 57 nM. For the same compound, the inhibition in vivo at 3 mg/kg in data set [1] was over 50%.
Take `COCCOCCn1cc(C2CCN(Cc3ccc(C(=O)O)o3)CC2)c2ccccc21` [Example 40, 5-(4-{1-[2-(2-methoxy-ethoxy)-ethyl]-1H-indol-3-yl}-piperidin-1-yl-methyl)-furan-2-carboxylic acid]: the melting point was 159 °C. For the same compound, the IC50 at histamine-H1 receptors was 210 nM.
Take `CCCCCn1cc(C2CCN(Cc3ccc(C(=O)O)o3)CC2)c2ccccc21` [Example 41, 5-[4-(1-pentyl-1H-indol-3-yl)-piperidin-1-yl-methyl]-furan-2-carboxylic acid]: the melting point lay in the range of 163 to 165 °C. The IC50 on histamine-H1 receptors was determined as 111 nM. The inhibition in vivo at 3 mg/kg in data set [1] was over 50%.
On to `CC(C)OCCn1cc(C2CCN(CCOc3ccccc3C(=O)O)CC2)c2ccccc21` [Example 108, 2-(2-{4-[1-(2-iso-propoxy-ethyl)-1H-indol-3-yl]-piperidin-1-yl}-ethoxy)-benzoic acid], for which, on histamine-H1 receptors, the half-maximal inhibitory concentration (IC50) was 275 nM. Moreover, the inhibition in vivo at 3 mg/kg in data set [1] is over 50%.
In the same order, the values of `CCOCCn1cc(C2CCN(CCOc3ccccc3C(=O)O)CC2)c2ccccc21` [Example 138, 2-(2-{4-[1-(2-ethoxy-ethyl)-1H-indol-3-yl]piperidin-1-yl}-ethoxy)-benzoic acid] are 86 nM and over 50%.
In turn, `CC(C)CCn1cc(C2CCN(CCOc3ccccc3C(=O)O)CC2)c2ccccc21` [Example 139, 2-(2-{4-[1-(3-methyl-butyl)-1H-indol-3-yl]-piperidin-1-yl}-ethoxy)-benzoic acid] came in with a melting point of 150 to 151 °C. Moreover, at histamine-H1 receptors, the IC50 was 205 nM.
`COCCn1cc(C2CCN(CCOc3ccccc3C(=O)O)CC2)c2ccccc21` [Example 140, 2-(2-{4-[1-(2-methoxy-ethyl)-1H-indol-3-yl]-piperidin-1-yl}-ethoxy)-benzoic acid] showed a melting point of 139 to 140 °C. The IC50 at histamine-H1 receptors is 83 nM. The inhibition in vivo at 3 mg/kg in data set [1] was over 50%.
`C=CCn1cc(C2CCN(CCOc3ccccc3C(=O)O)CC2)c2ccccc21` [Example 141, 2-{2-[4-(1-allyl-1H-indol-3-yl)-piperidin-1-yl]-ethoxy}-benzoic acid] registered a melting point of 123 to 125 °C. Also, the IC50 at histamine-H1 receptors is 97 nM. In addition, the inhibition in vivo at 3 mg/kg in data set [1] is over 50%.
`CCCCn1cc(C2CCN(CCOc3ccccc3C(=O)O)CC2)c2ccccc21` [Example 148, 2-{2-[4-(1-butyl-1H-indol-3-yl)-piperidin-1-yl]-ethoxy}-benzoic acid]: on histamine-H1 receptors, the IC50 stood at 127 nM. Moreover, in data set [1], the inhibition in vivo at 3 mg/kg was over 50%.
For the compound `CCCCCCn1cc(C2CCN(CCOc3ccccc3C(=O)O)CC2)c2ccccc21` [Example 149, 2-{2-[4-(1-hexyl-1H-indol-3-yl)-piperidin-1-yl]-ethoxy}-benzoic acid], on histamine-H1 receptors, the IC50 is 142 nM. Further, the inhibition in vivo at 3 mg/kg in data set [1] was over 50%.
In turn, `O=C(O)c1ccccc1OCCN1CCC(c2c[nH]c3ccccc23)CC1` [Example 151, 2-{2-[4-(1H-indol-3-yl)-piperidin-1-yl]-ethoxy}-benzoic acid] returned a melting point of 230 °C.
Compound `CCOCCn1cc(C2CCN(CCOc3ccc(C)cc3C(=O)O)CC2)c2ccccc21` [Example 154, 2-(2-{4-[1-(2-ethoxy-ethyl)-1H-indol-3-yl]-piperidin-1-yl}-ethoxy)-5-methyl-benzoic acid] yielded a melting point of 109 to 112 °C.
Turning to `O=C(O)Cc1ccc(OCCCN2CCC(c3cn(CC4CC4)c4ccccc34)CC2)cc1` [Example 159, (4-{3-[4-(1-cyclopropylmethyl-1H-indol-3-yl)-piperidin-1-yl]-propoxy}-phenyl)-acetic acid], the melting point is 83 to 85 °C. Besides, at histamine-H1 receptors, the IC50 was determined as 68 nM.
